One may read the IC50 as the concentration that inhibits the measured activity by half. The low end stands for higher potency, the high end for lower potency. The Ki is the equilibrium dissociation constant of an inhibitor or competing ligand from its target.

Bounds are passed on as bounds.

In one test the target is mGluR5 (Rattus norvegicus, UniProt P31424). The experiment in a line: IC50 column under 'Biological Activity' (assay not identified in the shown text; not the binding Ki).
In a further test the target is T1, rat mGluR5 receptor (Rattus norvegicus, UniProt P31424).
T1 construct: expressed in transfected cells; host or cells: HEK-293
Put plainly: [3H]-MPEP displacement binding assay, HEK-293 cell membranes expressing rat mGluR5. The settings on record: [3H]-MPEP displacement, rat mGluR5; read-out: Median Ki. The essentials: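 Membranes from HEK-293 cells expressing rat mGluR5 (12-25 μg protein), incubated 60 min at room temperature with 4 nM [3H]-MPEP in 50 mM Tris pH 7.5, then filtered. Nonspecific binding defined with 10 μM MPEP.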

T1 sequence (P31424 21-1203): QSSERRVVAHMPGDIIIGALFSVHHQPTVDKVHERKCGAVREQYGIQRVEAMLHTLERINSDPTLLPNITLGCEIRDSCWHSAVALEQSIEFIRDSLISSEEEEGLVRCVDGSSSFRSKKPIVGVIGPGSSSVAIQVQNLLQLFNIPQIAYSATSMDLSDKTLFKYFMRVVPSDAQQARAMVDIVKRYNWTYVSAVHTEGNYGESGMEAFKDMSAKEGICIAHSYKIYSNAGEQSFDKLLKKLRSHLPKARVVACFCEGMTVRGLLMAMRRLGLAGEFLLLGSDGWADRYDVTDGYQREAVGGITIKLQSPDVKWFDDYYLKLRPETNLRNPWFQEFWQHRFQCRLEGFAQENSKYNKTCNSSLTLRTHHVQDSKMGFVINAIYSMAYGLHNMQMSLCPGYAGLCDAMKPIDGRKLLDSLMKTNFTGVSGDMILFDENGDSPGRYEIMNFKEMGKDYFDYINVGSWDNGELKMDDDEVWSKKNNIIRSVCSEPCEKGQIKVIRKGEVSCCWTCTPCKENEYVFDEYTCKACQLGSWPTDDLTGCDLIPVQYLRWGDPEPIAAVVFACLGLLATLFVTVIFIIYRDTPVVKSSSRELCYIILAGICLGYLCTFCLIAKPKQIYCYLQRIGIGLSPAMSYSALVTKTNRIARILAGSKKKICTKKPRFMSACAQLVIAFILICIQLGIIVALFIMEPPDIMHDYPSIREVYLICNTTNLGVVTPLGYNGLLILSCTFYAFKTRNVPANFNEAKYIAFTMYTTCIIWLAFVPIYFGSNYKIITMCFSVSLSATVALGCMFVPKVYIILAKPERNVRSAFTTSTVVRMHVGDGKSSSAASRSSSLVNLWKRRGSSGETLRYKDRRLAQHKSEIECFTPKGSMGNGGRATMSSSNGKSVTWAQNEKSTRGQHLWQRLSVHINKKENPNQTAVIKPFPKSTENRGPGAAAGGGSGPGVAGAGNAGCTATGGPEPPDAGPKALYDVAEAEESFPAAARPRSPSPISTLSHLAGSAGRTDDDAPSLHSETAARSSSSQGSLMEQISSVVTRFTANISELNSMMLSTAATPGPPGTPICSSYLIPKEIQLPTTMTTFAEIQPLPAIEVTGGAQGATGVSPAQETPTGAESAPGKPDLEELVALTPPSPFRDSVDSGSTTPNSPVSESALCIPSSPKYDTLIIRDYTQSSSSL
mGluR5, sequence (P31424 21-1203): as above

The compound `COc1ccc(C(=O)N2CCN(Cc3ccc(Cl)cc3)CC2)cc1C#Cc1ccccn1` [Compound 275, 1-(4-chlorobenzyl)-4-[4-methoxy-3-(pyridin-2-ylethynyl)benzoyl]piperazine] had an IC50 on mGluR5 of 0.144 µM. Further, the Ki on rat mGluR5 receptor turned out to be 0.017 µM.
In turn, `COc1ccc(C(=O)N2CCN(Cc3ccc(Cl)cc3Cl)CC2)cc1C#Cc1ccccn1` [Compound 280, 1-(2,4-dichlorobenzyl)-4-[4-methoxy-3-(pyridin-2-ylethynyl)benzoyl]piperazine] returned an IC50 on mGluR5 of 0.317 µM. For the same compound, the Ki at rat mGluR5 receptor turned out to be 0.043 µM.
On mGluR5, `COc1ccc(C(=O)N2CCN(Cc3ccc(Br)cc3F)CC2)cc1C#Cc1ccccn1` [Compound 285, 1-(4-bromo-2-fluorobenzyl)-4-[4-methoxy-3-(pyridin-2-ylethynyl)benzoyl]piperazine] showed an IC50 of 0.326 µM. The Ki at rat mGluR5 receptor amounted to 0.007 µM.
For `COc1ccc(C(=O)N2CCN(S(=O)(=O)c3ccc4ccccc4c3)CC2)cc1C#Cc1ccccn1` [Compound 287, 1-[4-methoxy-3-(pyridin-2-ylethynyl)benzoyl]-4-(2-naphthylsulfonyl)piperazine], in that order: more than 1000 µM and 0.07 µM.
In the same order, the values of `COc1ccc(C(=O)N2CCN(c3ccccc3)CC2)cc1C#Cc1ccccn1` [Compound 292, 1-[4-methoxy-3-(pyridin-2-ylethynyl)benzoyl]-4-phenylpiperazine] are 0.208 µM and 0.014 µM.
In the case of `COc1ccc(C(=O)N2CCN(c3ncc(C#N)c(N)n3)CC2)cc1C#Cc1ccccn1` [Compound 293, 4-Amino-2-(4-(4-methoxy-3-(pyridin-2-ylethynyl)benzoyl)piperazin-1-yl)pyrimidine-5-carbonitrile], the IC50 at mGluR5 is more than 1 µM. Moreover, the Ki on rat mGluR5 receptor was determined as 0.058 µM.
In the same order, the values of `COc1ccc(C(=O)N2CCN(c3ccnc(SC)n3)CC2)cc1C#Cc1ccccn1` [Compound 296, 4-{4-[4-methoxy-3-(pyridin-2-ylethynyl)benzoyl]piperazin-1-yl}-2-(methylthio)pyrimidine] are more than 1 µM and 0.022 µM.
In the case of `COc1ccc(C(=O)N2CCN(c3ncc(F)cn3)CC2)cc1C#Cc1ccccn1` [Compound 298, 5-fluoro-2-{4-[4-methoxy-3-(pyridin-2-ylethynyl)benzoyl]piperazin-1-yl}pyrimidine], the IC50 on mGluR5 came out at 0.102 µM. For the same compound, the Ki on rat mGluR5 receptor was determined as 0.033 µM.
Take `COc1cnc(N2CCN(C(=O)c3ccc(OC)c(C#Cc4ccccn4)c3)CC2)nc1` [Compound 299, 5-methoxy-2-{4-[4-methoxy-3-(pyridin-2-ylethynyl)benzoyl]piperazin-1-yl}pyrimidine]: the IC50 at mGluR5 worked out at 0.119 µM. Also, the Ki at rat mGluR5 receptor stood at 0.025 µM.
In the same order, the values of `COc1ccc(C(=O)N2CCN(c3ncc(F)c(N)n3)CC2)cc1C#Cc1ccccn1` [Compound 300, 5-fluoro-2-{4-[4-methoxy-3-(pyridin-2-ylethynyl)benzoyl]piperazin-1-yl}pyrimidin-4-amine] are 0.198 µM and 0.03 µM.
For `COc1ccc(N2CCN(C(=O)c3ccc(OC)c(C#Cc4ccccn4)c3)CC2)nn1` [Compound 301, 3-methoxy-6-{4[4-methoxy-3-(pyridin-2-ylethynyl)benzoyl]piperazin-1-yl}pyridazine], in that order: 0.204 µM and 0.083 µM.
In the same order, the values of `COc1ccc(C(=O)N2CCN(c3nnc(Cl)cc3C)CC2)cc1C#Cc1ccccn1` [Compound 302, 6-chloro-3-{4-[4-methoxy-3-(pyridin-2-ylethynyl)benzoyl]piperazin-1-yl}-4-methylpyridazine] are more than 1 µM and 0.039 µM.
As to `COc1ccc(C(=O)N2CCN(c3ccc(Cl)nn3)CC2)cc1C#Cc1ccccn1` [Compound 303, 3-chloro-6-{4-[4-methoxy-3-(pyridin-2-ylethynyl)benzoyl]piperazin-1-yl}pyridazine], the IC50 at mGluR5 is more than 1 µM. The Ki on rat mGluR5 receptor is 0.031 µM.
For `COc1ccc(C(=O)N2CCN(c3nccnc3Cl)CC2)cc1C#Cc1ccccn1` [Compound 304, 2-chloro-3-{4-[4-methoxy-3-(pyridin-2-ylethynyl)benzoyl]piperazin-1-yl}pyrazine], the IC50 on mGluR5 was determined as 0.408 µM. The Ki on rat mGluR5 receptor amounted to 0.052 µM.
For the compound `COc1ccc(C(=O)N2CCN(c3nnc(Cl)c4ccccc34)CC2)cc1C#Cc1ccccn1` [Compound 306, 1-chloro-4-{4-[4-methoxy-3-(pyridin-2-ylethynyl)benzoyl]piperazin-1-yl}phthalazine], at mGluR5, the IC50 was 0.356 µM. In addition, the Ki at rat mGluR5 receptor is 0.072 µM.
In the same order, the values of `Cc1ccc(C(=O)N2CCN(c3noc4ccccc34)CC2)cc1C#Cc1ccccn1` [Compound 307, 3-{4-[4-Methyl-3-(pyridin-2-ylethynyl)benzoyl]piperazin-1-yl}-1,2-benzisoxazole] are 0.05 µM and 0.001 µM.
For `COc1ccnc(N2CCN(C(=O)c3ccc(C)c(C#Cc4ccccn4)c3)CC2)n1` [Compound 308, 4-Methoxy-2-{4-[4-methyl-3-(pyridin-2-ylethynyl)benzoyl]piperazin-1-yl}pyrimidine], in that order: 0.107 µM and 0.008 µM.
In the same order, the values of `Cc1ccc(C(=O)N2CCN(c3ncccn3)CC2)cc1C#Cc1ccccn1` [Compound 309, 2-{4-[4-methyl-3-(pyridin-2-ylethynyl)benzoyl]piperazin-1-yl}pyrimidine] are 0.193 µM and 0.034 µM.
The compound `O=C(c1ccc(F)c(C#Cc2ccccn2)c1)N1CCN(c2ccccn2)CC1` [Compound 313, 1-[4-fluoro-3-(pyridin-2-ylethynyl)benzoyl]-4-pyridin-2-ylpiperazine] showed an IC50 at mGluR5 of 0.062 µM. Also, on rat mGluR5 receptor, the Ki amounted to 0.023 µM.
In the same order, the values of `O=C(c1ccc(F)c(C#Cc2ccccn2)c1)N1CCN(c2noc3ccccc23)CC1` [Compound 316, 3-{4-[4-fluoro-3-(pyridin-2-ylethynyl)benzoyl]piperazin-1-yl}-1,2-benzisoxazole] are 0.024 µM and 0.002 µM.
Consider `COc1ccnc(N2CCN(C(=O)c3ccc(F)c(C#Cc4ccccn4)c3)CC2)n1` [Compound 317, 2-{4-[4-fluoro-3-(pyridin-2-ylethynyl)benzoyl]piperazin-1-yl}-4-methoxypyrimidine], for which, on mGluR5, the IC50 is 0.03 µM. The Ki at rat mGluR5 receptor was determined as 0.02 µM.
In the same order, the values of `CCOc1ccc(C(=O)N2CCN(c3ccccn3)CC2)cc1C#Cc1ccccn1` [Compound 318, 1-[4-ethoxy-3-(pyridin-2-ylethynyl)benzoyl]-4-pyridin-2-ylpiperazine] are 0.019 µM and 0.018 µM.
In the same order, the values of `CCOc1ccc(C(=O)N2CCN(c3nccc(OC)n3)CC2)cc1C#Cc1ccccn1` [Compound 320, 2-{4-[4-ethoxy-3-(pyridin-2-ylethynyl)benzoyl]piperazin-1-yl}-4-methoxypyrimidine] are 0.031 µM and 0.02 µM.
Regarding `CCOc1ccc(C(=O)N2CCN(c3noc4ccccc34)CC2)cc1C#Cc1ccccn1` [Compound 322, 3-{4-[4-ethoxy-3-(pyridin-2-ylethynyl)benzoyl]piperazin-1-yl}-1,2-benzisoxazole], the IC50 on mGluR5 was found to be 0.035 µM. The Ki at rat mGluR5 receptor was 0.006 µM.
In turn, `O=C(c1ccc(OCC2CC2)c(C#Cc2ccccn2)c1)N1CCN(c2noc3ccccc23)CC1` [Compound 324, 3-(4-{[4-(cyclopropylmethoxy)-3-(pyridin-2-ylethynyl)phenyl]carbonyl}piperazin-1-yl)-1,2-benzisoxazole] yielded an IC50 on mGluR5 of 0.078 µM. In addition, at rat mGluR5 receptor, the Ki was determined as 0.005 µM.
In the same order, the values of `COc1ccc(C(=O)N2CCN(c3ccc(Cl)cc3)C(=O)C2)cc1C#Cc1ccccn1` [Compound 326, 1-(4-Chlorophenyl)-4-{[4-methoxy-3-(pyridin-2-ylethynyl)phenyl]carbonyl}piperazin-2-one] are 0.029 µM and 0.072 µM.
In the same order, the values of `COc1ccc(C(=O)N2CCN(c3cccc(Cl)c3)C(=O)C2)cc1C#Cc1ccccn1` [Compound 327, 1-(3-chlorophenyl)-4-{[4-methoxy-3-(pyridin-2-ylethynyl)phenyl]carbonyl}piperazin-2-one] are 0.049 µM and 0.04 µM.
`COc1ccc(C(=O)N2CCN(c3ccccc3Cl)C(=O)C2)cc1C#Cc1ccccn1` [Compound 328, 1-(2-chlorophenyl)-4-{[4-methoxy-3-(pyridin-2-ylethynyl)phenyl]carbonyl}piperazin-2-one] showed an IC50 at mGluR5 of 0.05 µM. In addition, the Ki on rat mGluR5 receptor was determined as 0.096 µM.
In the same order, the values of `COc1ccc(C(=O)N2CCN(c3ccccc3)C(=O)C2)cc1C#Cc1ccccn1` [Compound 329, 4-{[4-methoxy-3-(pyridin-2-ylethynyl)phenyl]carbonyl}-1-phenylpiperazin-2-one] are 0.118 µM and 0.084 µM.
In the same order, the values of `COc1ccc(C(=O)N2CCN(Cc3ccccc3)C(=O)C2)cc1C#Cc1ccccn1` [Compound 331, 1-Benzyl-4-[4-methoxy-3-(pyridin-2-ylethynyl)benzoyl]piperazin-2-one] are 0.051 µM and 0.061 µM.
In the same order, the values of `O=C(c1ccc(OC(F)(F)F)c(C#Cc2ccccn2)c1)N1CCN(c2cnccn2)CC1` [Compound 335, 2-{4-[3-(pyridin-2-ylethynyl)-4-(trifluoromethoxy)benzoyl]piperazin-1-yl}pyrazine] are 0.273 µM and 0.176 µM.
For the compound `O=C(c1ccc(OC(F)(F)F)c(C#Cc2ccccn2)c1)N1CCN(c2noc3ccccc23)CC1` [Compound 338, 3-{4-[3-(pyridin-2-ylethynyl)-4-(trifluoromethoxy)benzoyl]piperazin-1-yl}-1,2-benzisoxazole], the IC50 on mGluR5 stood at 0.016 µM. Besides, the Ki on rat mGluR5 receptor is 0.001 µM.
For `O=C(c1ccc(OC(F)(F)F)c(C#Cc2ccccn2)c1)N1CCN(c2ccccn2)CC1` [Compound 340, 1-Pyridin-2-yl-4-{[3-(pyridin-2-ylethynyl)-4-(trifluoromethoxy)phenyl]carbonyl}piperazine], in that order: 0.007 µM and 0.002 µM.

For the origin of these results see patent US20090325964A1, “Piperazine Metabotropic Glutamate Receptor 5 (MGLUR5) Negative Allosteric Modulators For Anxiety/Depression” (Wyeth, priority 2008, published 2009).
